Where two headings read alike, the source gives them in different places.
What was measured:
[1] = test system: E. coli KA797 cells carrying BlaC position 105 library; type: cell-based, Escherichia coli; details: for Fi MEM AVG / Fi AVG (average fitness): average of replicates; for Fi AVG (average fitness): relative to WT Ile
[2] = test system: E. coli KA797 cells carrying CTX-M-14 position 105 library; type: cell-based; details: CTX-M-14 WT (Tyr 105)
[3] = test system: E. coli KA797 cells carrying KPC-2 position 105 library; type: cell-based; details: selection with labelled antibiotic
[4] = KPC-2 AA 105 = Trp (WT, reference)

C[C@@H](O)[C@H]1C(=O)N2C(C(=O)O)=C(S[C@@H]3CN[C@H](C(=O)N(C)C)C3)[C@H](C)[C@H]12 [meropenem] was tested, and the “Fi MEM AVG” value ([1]; AA 105 Ser, meropenem) was -1.018, the “Fi MEM 1” value ([1]; AA 105 Ser, meropenem, replicate 1) was -0.084 and the “Fi MEM 2” value ([1]; AA 105 Ser, meropenem, replicate 2) was -1.824. For the same compound, the “Fi MEM 3” value ([1]; AA 105 Ser, meropenem, replicate 3) was -1.144, the “Fi AVG (average fitness)” value ([1]; AA 105 Thr (BlaC I105T)) was -0.015 and the “Significance (Fi MEM AVG)” value ([1]; AA 105 Thr, meropenem) was “-”. The “Fi MEM AVG” value ([1]; AA 105 Thr, meropenem) was -1.775, the “Fi MEM 1” value ([1]; AA 105 Thr, meropenem, replicate 1) was -1.838 and the “Fi MEM 2” value ([1]; AA 105 Thr, meropenem, replicate 2) was -2.332. The “Fi MEM 3” value ([1]; AA 105 Thr, meropenem, replicate 3) was -1.155, the “Fi MEM AVG” value ([1]; AA 105 Trp, meropenem) was -0.487 and the “Fi MEM 1” value ([1]; AA 105 Trp, meropenem, replicate 1) was 0.050. The “Fi MEM 2” value ([1]; AA 105 Trp, meropenem, replicate 2) was -1.403, the “Fi MEM 3” value ([1]; AA 105 Trp, meropenem, replicate 3) was -0.109 and the “Fi AVG (average fitness)” value ([1]; AA 105 Tyr (BlaC I105Y)) was -0.070. The “Fi MEM AVG” value ([1]; AA 105 Tyr, meropenem) was -0.204, the “Fi MEM 1” value ([1]; AA 105 Tyr, meropenem, replicate 1) was 0.312 and the “Fi MEM 2” value ([1]; AA 105 Tyr, meropenem, replicate 2) was -1.109. The “Fi MEM 3” value ([1]; AA 105 Tyr, meropenem, replicate 3) was 0.185, the “Fi AVG (average fitness)” value ([1]; AA 105 Val (BlaC I105V)) was -0.016 and the “Fi MEM AVG” value ([1]; AA 105 Val, meropenem) was -0.855. For the same compound, the “Fi MEM 1” value ([1]; AA 105 Val, meropenem, replicate 1) was 0.059, the “Fi MEM 2” value ([1]; AA 105 Val, meropenem, replicate 2) was -2.574 and the “Fi MEM 3” value ([1]; AA 105 Val, meropenem, replicate 3) was -0.049. The “WT abs Fi 1” value ([1]; WT (Ile 105) absolute fitness, meropenem, replicate 1) was 0.125, the “WT abs Fi 2” value ([1]; WT (Ile 105) absolute fitness, meropenem, replicate 2) was 0.070 and the “WT abs Fi 3” value ([1]; WT (Ile 105) absolute fitness, meropenem, replicate 3) was 0.109. For the same compound, the “WT abs Fi 1 (absolute fitness of wild type, Replicate 1)” value [2] was -0.645, the “WT abs Fi 2 (absolute fitness of wild type, Replicate 2)” value [2] was -0.807 and the “Fi (relative fitness), Replicate 1” value ([3]; KPC-2 AA 105 = Ala) was 0.581. The “Fi AVG (average fitness of replicates)” value ([3]; KPC-2 AA 105 = Ala) was 0.217, the “Fi (relative fitness), Replicate 1” value ([3]; KPC-2 AA 105 = Arg) was 0.240 and the “Fi AVG (average fitness of replicates)” value ([3]; KPC-2 AA 105 = Arg) was 0.280. For the same compound, the “Significance of average fitness” value ([3]; KPC-2 AA 105 = Arg) was “+”, the “Fi (relative fitness), Replicate 1” value ([3]; KPC-2 AA 105 = Asn) was 0.449 and the “Fi AVG (average fitness of replicates)” value ([3]; KPC-2 AA 105 = Asn) was 0.201. The “Fi (relative fitness), Replicate 1” value ([3]; KPC-2 AA 105 = Asp) was -0.690, the “Fi AVG (average fitness of replicates)” value ([3]; KPC-2 AA 105 = Asp) was -0.489 and the “Fi (relative fitness), Replicate 1” value ([3]; KPC-2 AA 105 = Cys) was -0.271. For the same compound, the “Fi AVG (average fitness of replicates)” value ([3]; KPC-2 AA 105 = Cys) was -0.750, the “Significance of average fitness” value ([3]; KPC-2 AA 105 = Cys) was “-” and the “Fi (relative fitness), Replicate 1” value ([3]; KPC-2 AA 105 = Gln) was -0.624. For the same compound, the “Fi AVG (average fitness of replicates)” value ([3]; KPC-2 AA 105 = Gln) was -1.307, the “Significance of average fitness” value ([3]; KPC-2 AA 105 = Gln) was “-” and the “Fi (relative fitness), Replicate 1” value ([3]; KPC-2 AA 105 = Glu) was -0.509. For the same compound, the “Fi AVG (average fitness of replicates)” value ([3]; KPC-2 AA 105 = Glu) was -0.226, the “Fi AVG (average fitness of replicates)” value ([3]; KPC-2 AA 105 = Gly) was -0.037 and the “Fi (relative fitness), Replicate 1” value ([3]; KPC-2 AA 105 = His) was -1.077. The “Fi AVG (average fitness of replicates)” value ([3]; KPC-2 AA 105 = His) was -0.525, the “Fi (relative fitness), Replicate 1” value ([3]; KPC-2 AA 105 = Ile) was 0.107 and the “Fi AVG (average fitness of replicates)” value ([3]; KPC-2 AA 105 = Ile) was 0.391. The “Significance of average fitness” value ([3]; KPC-2 AA 105 = Ile) was “+”, the “Fi (relative fitness), Replicate 1” value ([3]; KPC-2 AA 105 = Leu) was -0.731 and the “Fi AVG (average fitness of replicates)” value ([3]; KPC-2 AA 105 = Leu) was -0.210. For the same compound, the “Fi (relative fitness), Replicate 1” value ([3]; KPC-2 AA 105 = Lys) was 0.268, the “Fi AVG (average fitness of replicates)” value ([3]; KPC-2 AA 105 = Lys) was -0.089 and the “Fi (relative fitness), Replicate 1” value ([3]; KPC-2 AA 105 = Met) was -1.083. The “Fi AVG (average fitness of replicates)” value ([3]; KPC-2 AA 105 = Met) was -0.791, the “Fi (relative fitness), Replicate 1” value ([3]; KPC-2 AA 105 = Phe) was -0.159 and the “Fi AVG (average fitness of replicates)” value ([3]; KPC-2 AA 105 = Phe) was 0.248. For the same compound, the “Fi (relative fitness), Replicate 1” value ([3]; KPC-2 AA 105 = Pro) was -0.148, the “Fi AVG (average fitness of replicates)” value ([3]; KPC-2 AA 105 = Pro) was -1.195 and the “Significance of average fitness” value ([3]; KPC-2 AA 105 = Pro) was “-”. For the same compound, the “Fi (relative fitness), Replicate 1” value ([3]; KPC-2 AA 105 = Ser) was 0.279, the “Fi AVG (average fitness of replicates)” value ([3]; KPC-2 AA 105 = Ser) was -0.239 and the “Fi AVG (average fitness of replicates)” value ([3]; KPC-2 AA 105 = Thr) was -0.051. For the same compound, the “Fi (relative fitness), Replicate 1” value [3, 4] was 0.000, the “Fi AVG (average fitness of replicates)” value [3, 4] was 0.000 and the “Fi (relative fitness), Replicate 1” value ([3]; KPC-2 AA 105 = Tyr) was 0.109. For the same compound, the “Fi AVG (average fitness of replicates)” value ([3]; KPC-2 AA 105 = Tyr) was -0.474, the “Fi (relative fitness), Replicate 1” value ([3]; KPC-2 AA 105 = Val) was -1.754 and the “Fi AVG (average fitness of replicates)” value ([3]; KPC-2 AA 105 = Val) was -0.973. For the same compound, the “WT abs Fi 1 (absolute fitness)” value ([3]; KPC-2 WT (Trp 105), replicate 1) was 0.081, the “WT abs Fi 2 (absolute fitness)” value ([3]; KPC-2 WT (Trp 105), replicate 2) was -0.069 and the “WT abs Fi 3 (absolute fitness)” value ([3]; KPC-2 WT (Trp 105), replicate 3) was 0.298.
